Where “and” joins values, the source holds several entries; their conditions need not be identical. Equal entries are not always repeated. Where two headings read alike, the source gives them in different places. Starred links: 1 amine or outer side, 2 acyl side, 3 side chain; linkers in the order of their positions; H or OH if unused. Positions of bridges follow the written chain, without caps; N, C: chain ends. Non-standard residues stand in square brackets, D forms with d. Residues, ends and D or L forms follow the SMILES beside them. TATA = O=C(CC[*:1])N1CN(C(=O)CC[*:2])CN(C(=O)CC[*:3])C1; Phe(4-F) = N[C@@H](Cc1ccc(F)cc1)C(=O)O; β3hR = N=C(N)NCCC[C@H](N)CC(=O)O
Columns and labels:
[1] = Pharmacokinetic study in pigs (plasma concentration by LC-MS); assay type: in vivo, pig
Method: Swiss large white pigs, both sexes, 3–4 months old (30 ± 5 kg) were anesthetized and prepared following procedures used to study myocardial ischemia/reperfusion injury. In this procedure, the ACT is monitored and 2500 IU of heparin are injected when ACT values fall below 180 s. Pigs were injected intravenously with 4 mg kg^−1 of FXII900 dissolved in 1 ml PBS, pH 7.4. […] The concentration of FXII900 in the plasma samples was determined by LC-MS as described below.
The concentration of FXII900 in the plasma samples was quantified based on peak intensities of total ion current (TIC) chromatograms acquired by LC-MS (LCMS-2020, Shimadzu). To 15 μl of plasma sample, 1 μM of internal standard peptide and 5 μl of 6 M guanidinium hydrochloride solution were added and mixed. Plasma proteins were precipitated by the addition of 400 µl of ice cold ethanol (99.9% [v/v] EtOH, 0.1% [v/v] TFA) and incubated on ice for one hour. Precipitate was removed by centrifugation (9000 × g, 20 min, 4 °C) and the supernatant dried by centrifugal evaporation under vacuum. Dried samples were dissolved by sequentially adding 2 μl of DMSO and 18 μl of H2O containing 0.1% (v/v) CHOOH and analyzed by LC-MS. The samples were analyzed using an analytical C18 column (Phenomenex C18 Kinetex column, 50 × 2.1 mm, 2.6 µm, 100 Å) and a linear gradient of 5–30% solvent B (MeCN, 0.05% [v/v] CHOOH) in solvent A (H2O, 0.05% [v/v] CHOOH) in 4.5 min at a flow of 1 ml per min. The mass was measured on a single quadrupole mass spectrometer in positive ion mode using electrospray ionization. Peptides were quantified based on the absolute intensities of the detected mass peaks (M^3+ and M^4+).

[2] = Plasma stability assay (residual FXIIa inhibitory activity after plasma incubation); assay type: in vitro ADME, human; settings: for Residual activity of inhibitor: human plasma 37 °C; for half-life at 10 μM: human, plasma
Method: Peptide (2 μl of 2 mM in H2O) was added to 398 μl of citrated human plasma (Innovative Research) to obtain a final peptide concentration of 10 μM. The mixture was incubated in a water bath at 37 °C. At different time points (0, 0.5, 1, 2, 4, 8, 12, 24, 48, and 96 h), samples of 30 μl were removed, diluted to 200 μl with aqueous buffer (10 mM Tris-HCl, pH 7.4, 150 mM NaCl, 10 mM MgCl2, 1 mM CaCl2), and incubated for 20 min at 65 °C to inactivate plasma proteases. The peptide/plasma samples were stored at −20 °C until the residual inhibitory activity of the peptides was measured in a FXIIa inhibition assay. […] IC50 values were derived from the fitted curve using an equation described in the Supplementary Methods. Residual inhibition in % was calculated using the equation IC50,0h/IC50,xh*100, wherein IC50,0h is the functional strength of the inhibitor at time point 0 and IC50,xh the functional strength of the inhibitor after one of the different plasma incubation periods mentioned above.

CC(C)C[C@@H]1NC(=O)[C@H](CCC(N)=O)NC(=O)[C@H](Cc2c[nH]cn2)NC(=O)[C@@H]2CSCCC(=O)N3CN(CN(C3)C(=O)CCSC[C@H](NC(=O)[C@@H](CO)NC(=O)[C@H](N)CCCNC(=N)N)C(=O)N[C@@H](Cc3ccc(F)cc3)C(=O)N[C@@H](CCCNC(=N)N)C(=O)N[C@@H](CC(C)C)C(=O)N3CCC[C@H]3C(=O)N2)C(=O)CCSC[C@@H](C(N)=O)NC(=O)C[C@H](CCCNC(=N)N)NC1=O [FXII900] (H-[dR][dS]C[Phe(4-F)]RLPCHQL[β3hR]C-NH2; linker 3-8-13 via TATA)
clearance ([1]; both sexes, Swiss large white, pig, plasma, intravenous, 4 mg kg^−1, read-out: clearance rate (CL)): 11.8 ± 1.8 mL/min/kg | Cmax ([1]; both sexes, Swiss large white, pig, plasma, intravenous, 4 mg kg^−1, read-out: maximal concentration): ~7000 nM | half-life ([1]; both sexes, Swiss large white, pig, plasma, intravenous, 4 mg kg^−1, read-out: t1/2 (t1/2 β)): 0.6 ± 0.0833 h | Vd ([1]; both sexes, Swiss large white, pig, plasma, intravenous, 4 mg kg^−1, read-out: volume of distribution (VD)): 0.61 ± 0.14 L/kg | level at time molar at 4 min ([1]; both sexes, Swiss large white, pig, plasma, iv, 4 mg/kg, intravenous administration, 4 min, individual pigs and analyses, read-out: Plasma conc.): 7470 nM | level at time molar at […] ([1]; both sexes, Swiss large white, pig, plasma, iv, 4 mg/kg, intravenous administration, 15 min, individual pigs and analyses, read-out: Plasma conc.): 2710 nM | level at time molar at 16 min ([1]; both sexes, Swiss large white, pig, plasma, iv, 4 mg/kg, intravenous administration, 16 min, individual pigs and analyses, read-out: Plasma conc.): 3720 nM | level at time molar at 35 min ([1]; both sexes, Swiss large white, pig, plasma, iv, 4 mg/kg, intravenous administration, 35 min, individual pigs and analyses, read-out: Plasma conc.): 1290 nM | level at time molar at 0.6 h ([1]; both sexes, Swiss large white, pig, plasma, iv, 4 mg/kg, intravenous administration, 36 min, individual pigs and analyses, read-out: Plasma conc.): 1780 nM | level at time molar at 65 min ([1]; both sexes, Swiss large white, pig, plasma, iv, 4 mg/kg, intravenous administration, 65 min, individual pigs and analyses, read-out: Plasma conc.): 692 nM | level at time molar at 1.1 h ([1]; both sexes, Swiss large white, pig, plasma, iv, 4 mg/kg, intravenous administration, 66 min, individual pigs and analyses, read-out: Plasma conc.): 799 nM | level at time molar at 2 h ([1]; both sexes, Swiss large white, pig, plasma, iv, 4 mg/kg, intravenous administration, 120 min, individual pigs and analyses, read-out: Plasma conc.): 278 nM | Plasma conc. ([1]; intravenous administration, 4 min, individual pigs and analyses): 7458 nM and 7475 nM | Plasma conc. ([1]; intravenous administration, 35 min, individual pigs and analyses): 1282 nM | Residual activity of inhibitor ([2]; incubation time 0 h): 100% | Residual activity of inhibitor ([2]; incubation time 1 h): 95.4017% and 101.157% | Residual activity of inhibitor ([2]; incubation time 2 h): 110.888% and 102.799% | Residual activity of inhibitor ([2]; incubation time 4 h): 107.121% and 93.1543% | Residual activity of inhibitor ([2]; incubation time 8 h): 88.5873% and 105.225% | Residual activity of inhibitor ([2]; incubation time 12 h): 112.249% and 90.2639% | Residual activity of inhibitor ([2]; incubation time 24 h): 92.7385% and 98.9596% | Residual activity of inhibitor ([2]; incubation time 48 h): 82.5714% and 71.5934% | Residual activity of inhibitor ([2]; incubation time 96 h): 52.5% and 56.04% | half-life at 10 μM ([2]; 37 °C, remaining FXIIa inhibitory activity, read-out: half-life in human plasma (converted)): 128 h | half-life at 10 μM ([2]; t1/2 in plasma): > 120 h

Reference: PMC7403315, “Cyclic peptide FXII inhibitor provides safe anticoagulation in a thrombosis model and in artificial lungs” (Nature Communications, 2020)
